Results reported in patent US20260285924A1, “PEPTIDE THERAPEUTICS” (priority 2023, published 2026).

What was measured:
Format in all cases: cell-based, human
A375-NRAS^Q61K = experiment: Pan-Cancer PepTile fitness screen (lentiviral 40-mer peptide library, NGS abundance); conditions: peptide enrichment day 14 vs day 0
Method: (§1) A peptide tilling screen was performed in A375 similarly to a screen done in MDA-MB-231 (FIG. 1) but with a different lentiviral library. The library (Pan-Cancer library) is composed of 1020 genes tiled every 6 amino acids into 40-mer amino acid long peptides. The gene selection was based on their implication in oncogenesis either being as oncogenes or tumor suppressors. The list was built using recent literature that identified new cancer drivers as well as databases such as Uniprot keywords (KW-0656: Proto-oncogene, KW-0043: Tumor suppressor), and Gene Ontology terms (GO1900117: Apoptosis, GO1901979: Cell cycle checkpoint) (FIG. 2). Aside from Human genes, a list of viral genes was also included (KW-1121: Modulation of host cell cycle by virus) that play roles in high jacking cell cycle progression and thus in oncogenesis (FIG. 2).
(§2) The model of study is melanoma, and this disease is stratified into 4 molecular subtypes, BRAF mutants, NRAS mutants, KIT amplification, NF1 mutations (FIG. 3A). The most prominent mutations found in patient affected with metastatic melanomas are BRAF^V600E and NRAS^Q61K (FIG. 3B). RAS play a key role in oncogenesis and resistance to treatments. Indeed, RAS activating mutations is found in ~20% of all human cancers and secondary NRAS mutation leads to acquired resistance to BRAF targeted therapy such as vemurafenib. Thus, the screen was performed in an A375 cell line model which derived from human BRAF^V600E melanoma as well as an engineered A375 transduced with HA-NRAS^Q61K (FIG. 4A, B). Both cell lines grow at a similar rate but the A375-NRAS^Q61K display more than 10-fold resistance to vemurafenib treatment compared to parental A375 (FIG. 4C, D).
(§3) These cells were transduced with the Pan-Cancer library at a low multiplicity of infection (MOI=0.1-0.3). Then, genomic DNA was extracted at day 0 and day 14 post-transduction to quantify the abundance of peptide for each temporal conditions using Next-generation sequencing. Each experimental replicates were deep sequenced with at least 150 million reads and show a coverage between 82-90% of the initial Pan-Cancer Peptide library (FIG. 5). Then, for each individual peptides a cellular fitness score was calculated based on their enrichment between day 0 and day 14. 8090 peptides negatively affecting growth of A375-WT were identified and 8153 peptides for the A375-NRAS^Q61K cell line (FIG. 6). […] Those common hits are found to be tiles from ~100 genes of the Pan-Cancer gene list and show a substantial biological function clustering.

A375-WT = experiment: Pan-Cancer PepTile/PiTile fitness screen (lentiviral 40-mer peptide library, NGS abundance); design: key: enrichment of each peptide's NGS abundance, early day vs Day 14; conditions: for A375-WT Fitness Score: Pan-Cancer library, peptide enrichment day 14 vs day 0
Source text: FIGS. 13A-13D show Pan-Cancer PiTile Workflow. (A) The Pan-Cancer peptide library is composed of 1081 proteins tiled into 40-mer peptides at every 6 amino acids of the parental protein. The DNA-encoded library is cloned into lentiviral vectors and packaged into lentivirus. (B) A375 cell line was transduced with the Pan-Cancer PiTile library. Genomic DNA was then harvested at Day2 and Day 14 post-transduction and cell populations abundance expressing the different peptides were quantified using Next-Generation Sequencing (NGS). Peptide fitness score was then calculated by the abundance of each peptide at Day2 versus Day 14. Then the fitness signal is mapped over the original amino acid positions of the derived protein. (C) Coverage of the plasmid Pan-Cancer library and peptide-amplicons from Day2 and Day 14 replicated was determined by NGS. (D) Dot plot of the experimental result obtain from screening the Pan-Cancer library in A375 cell line.
as §1, §2, §3
We built a DNA-encoded peptide library composed of all known Human oncogenes and Tumor Suppressors that we fragmented in 40 amino acid long peptides, the Pan-Cancer library. Using lentiviral expression system, we transduced the Pan-Cancer library in A375 cell line. After 14 days of growth, the frequency of each peptide is measured by NGS and this reveal which peptides affect cell fitness. […]

[1] = tested on: A-to-I RNA editing reporter (ADAR) in A375; experiment: A-to-I PepTile (REPTILE) screen: A-to-I editing of dsRNA hairpin reporter by NGS; conditions: for % A-to-I editing (IFNα): IFNα 6000 U/ml for 48 hours; for % A-to-I editing (Basal): no treatment
Source text: (§4) FIGS. 12A-12D. A-to-I PepTile screen. (A) Composition of A-to-I PepTile linrary screen, and schematic description of the lentiviral expression vector. (B) Experimental workflow. A375 cells were transduced at low MOI, and then treated or not with IFNα for 48 hrs. RNA was extracted and Peptide_ADARreporter RNA species were amplified and sequenced by NGS. (C) Dot plot of A-to-I PepTile library effect on A-to-I editing with or without IFNα treatment. Red line is the mean A-to-I editing of all the 8088 peptides (>100 read counts) no treatment: 25.75% IFNα: 37.6%. (D) Dot plot of A-to-I PepTile library fitness effect upon IFNα for 48 hrs.
FIGS. 17A-17F show A-to-I RNA Editing PiTile (REPTILE) screen in A375. (A) A-to-I RNA Editing PiTile (REPTILE) library design consist of fragmentation of all known ADAR1, ADAR2 interactors and all human double stranded RNA-binding protein into 40 amino acid long peptide. This library was then cloned into a lentivirus vector that also encode a DNA-encoded RNA loop reporter (A-to-I Rep) that is edited by ADAR proteins in cells at the RNA level. When the construct is expressed, the RNA loop gets edited on a single Adenosine, while the 40-mer peptide get expressed at the protein level. Then we can measure the impact of the peptide expression on the editing rate of the RNA loop reporter by sequencing (NGS and Sanger). (B) Experimental workflow of REPTILE screen in A375 cell line. Cells were transduced with the REPTILE library, and then treated for 48 hours with IFNα. Following the treatment, RNA was harvested, converted into cDNA and amplicon library containing peptide Identity (barcode) linked to the RNA loop reporter were prepared for NGS. (C) Result of the A375 REPTILE screen in the no treatment condition. Each dot represents a unique peptide that is associated with an A-to-I editing rate that was measured on the RNA loop. (D) Result of the A375 REPTILE screen in the IFNα condition. Each dot represents a unique peptide that is associated with an A-to-I editing rate that was measured on the RNA loop. Red line represent the A-to-I editing mean, Dash blue line represent 2 times the standard deviation of the % A-to-I editing across all the datasets. This cutoff was used to defined peptides hits that modulate RNA A-to-I editing. (E) Peptide A-to-I Inhibitor Hits intersection between no treatment (% A-to-I editing<15%) and IFNα (% A-to-I editing<27%) conditions. (F) Peptide A-to-I Enhancers Hits intersection between no treatment (% A-to-I editing>36%) and IFNα (% A-to-I editing>47%) conditions.
Provided herein is a screening methodology to measure the effect of small peptide on A-to-I RNA editing in situ and screen thousands of peptides in a single experiment. First, a library of peptides with the potential of impairing A-to-I editing was designed and built. ADAR enzymes edit RNA only on double-stranded RNA structures and via ADAR's double stranded RNA-Binding Domain (dsRBD). […] The A-to-I PepTile library is composed of 19 Human proteins having dsRBD and 34 known protein-protein interactors of ADAR1/2. All these proteins were tiled into 40-mer peptides every 4 amino acids (FIG. 12A). To measure A-to-I editing, a biosensor consisting of a 71 bp dsRNA hairpin structure that gets A-to-I edited at a rate of 25% in A375 melanoma cells, and ~37% upon IFNα treatment was used. This A-to-I editing reporter is fused with DNA sequence encoding for a peptide from the A-to-I PepTile library. The A-to-I PepTile plasmid pool (10304 elements) was used to produced lentiviruses and transduced A375 cells at a low multiplicity of infection (MOI) (FIG. 12B). A part of the infected cells was treated with IFNα at 6000 U/ml for 48 hours, and then bulk RNA of the basal and treated condition was harvested. RNA was then retrotranscribed into cDNA and sequenced by Next-Generation Sequencing (NGS). […]

A375 cells = experiment: A-to-I PepTile screen: fitness effect upon IFNα (PepTile abundance untreated vs treated)
Source text: as §4
Provided herein is a screening methodology to measure the effect of small peptide on A-to-I RNA editing in situ and screen thousands of peptides in a single experiment. First, a library of peptides with the potential of impairing A-to-I editing was designed and built. ADAR enzymes edit RNA only on double-stranded RNA structures and via ADAR's double stranded RNA-Binding Domain (dsRBD). […] The A-to-I PepTile library is composed of 19 Human proteins having dsRBD and 34 known protein-protein interactors of ADAR1/2. All these proteins were tiled into 40-mer peptides every 4 amino acids (FIG. 12A). To measure A-to-I editing, a biosensor consisting of a 71 bp dsRNA hairpin structure that gets A-to-I edited at a rate of 25% in A375 melanoma cells, and ~37% upon IFNα treatment was used. This A-to-I editing reporter is fused with DNA sequence encoding for a peptide from the A-to-I PepTile library. The A-to-I PepTile plasmid pool (10304 elements) was used to produced lentiviruses and transduced A375 cells at a low multiplicity of infection (MOI) (FIG. 12B). A part of the infected cells was treated with IFNα at 6000 U/ml for 48 hours, and then bulk RNA of the basal and treated condition was harvested. RNA was then retrotranscribed into cDNA and sequenced by Next-Generation Sequencing (NGS). With the sequencing data, the A-to-I editing percentage of the RNA reporter for each PepTile is calculated since both elements are encoded on the same transcript. Moreover, with this screen one can also measure the abundance of the PepTiles between the untreated and treated conditions and determine Fitness score associated to every PepTile. To ensure a robust and more accurate A-to-I editing % estimation a cut-off of 100 read counts was set for each PepTile. […] SEQ ID NOs: 2125-2147 are A-to-I peptide inhibitors and SEQ ID NOs: 2148-2210 are A-to-I activators. In addition, 117 PepTiles were identified that either synergize (SEQ ID NOs: 2211-2243) or protect (SEQ ID NOs: 2244-2327) to IFNα-induced cell death (FIG. 12D and Table 5). These PepTiles are potential new therapeutic agents that can modulate the Interferon pathway. They may be beneficial in treating inflammatory conditions and may also enhance the effectiveness of cancer immunotherapy through synergistic effects.

[2] = IFNα 6000 U/ml for 48 hours vs untreated

## ARID2_13: 40-mer peptide tile of ARID2, AA start position 72, ARID domain (IVEEFNFPRSCSNAAFALKQYYLRYLEKYEKVHHFGEDDD; UniProt Q68CP9 72-111, looked up, fragment)
A375-NRAS^Q61K
  A375-NRAS Fitness Score: 0.85
A375-WT
  A375-WT Fitness Score: −2.41

## AXIN1_22: 40-mer peptide tile of AXIN1, AA start position 126, RGS domain (KLEPCDSNEEKRLKLARAIYRKYILDNNGIVSRQTKPATK; RGS domain peptide tile; UniProt O15169 126-165, looked up, fragment)
A375-NRAS^Q61K
  A375-NRAS Fitness Score: −0.54
A375-WT
  A375-WT Fitness Score: −2.88

## BRAF_64: 40-mer peptide tile of BRAF, AA start position 378, CR2 domain (NIDDLIRDQGFRGDGGSTTGLSATPPASLPGSLTNVKALQ; UniProt P15056 378-417, looked up, fragment)
A375-NRAS^Q61K
  A375-NRAS Fitness Score: −2.72
A375-WT
  A375-WT Fitness Score: −2.28

## CDKN2B_4: 40-mer peptide tile of CDKN2B, AA start position 18, ANK domain (LASAAARGLVEKVRQLLEAGADPNGVNRFGRRAIQVMMMG; UniProt P42772 18-57, looked up, fragment)
A375-NRAS^Q61K
  A375-NRAS Fitness Score: −3.63
A375-WT
  A375-WT Fitness Score: 0.36

## CTNNB1_30: 40-mer peptide tile of CTNNB1, AA start position 174, Armadillo domain (MVHQLSKKEASRHAIMRSPQMVSAIVRTMQNTNDVETARC; UniProt P35222 174-213, looked up, fragment)
A375-NRAS^Q61K
  A375-NRAS Fitness Score: −0.85
A375-WT
  A375-WT Fitness Score: −3.29
A375-WT; PanCancer Peptide Table (Table 3), lentivirally expressed 40-mer peptide tile
  Fitness score: −3.30

## DOCK4_114: 40-mer peptide tile of DOCK4, AA start position 678, Armadillo domain (LIKVLKWYVDRITEAERQEHIQEVLKAQEYIFKYIVQSRR; UniProt Q8N1I0 678-717, looked up, fragment)
A375-NRAS^Q61K
  A375-NRAS Fitness Score: −3.45
A375-WT
  A375-WT Fitness Score: 0.87

## MVSSAAGPLGPGDAVRRVLECVATGTLLTDGPGLQDPCERD [ZFR2_206]
[1]
  % A-to-I editing (IFNα): 55.48%
  % A-to-I editing (Basal): 44.05%
A375 cells; [2]
  Fitness Score IFNα: 0.81

## MVVLLCRQPCASQSSLKDINWDSSQWQPLIQDRCFLSWLVK [UPF1_52]
[1]
  % A-to-I editing (IFNα): 47.63%
  % A-to-I editing (Basal): 50.56%
A375 cells; [2]
  Fitness Score IFNα: -0.80

## MVYQAPLSLATVPHQALGRTQSSPAAPGGMKSPPDQPVKHL [HDAC5_161]
[1]
  % A-to-I editing (IFNα): 48.17%
  % A-to-I editing (Basal): 43.88%
A375 cells; [2]
  Fitness Score IFNα: -0.12

## MWDSIIQQATKNVDILKDPETVKQLGSILKTNVRACKAVGH [XPO1_167]
[1]
  % A-to-I editing (IFNα): 25.96%
  % A-to-I editing (Basal): 11.93%
A375 cells; [2]
  Fitness Score IFNα: 1.42

## MYSGYEAAVYSAASSYYQQQQQQQKQAAAAAAAAAATAAWT [ZFR_67]
[1]
  % A-to-I editing (IFNα): 47.21%
  % A-to-I editing (Basal): 41.43%
A375 cells; A375, PepTile abundance upon IFNα treatment, negative = synthetic lethal, positive = protector
  Fitness Score IFNα: 2.43
A375 cells; [2]
  Fitness Score IFNα: 2.43
